The target in assay [1] is T1, heparanase (Pedobacter heparinus, UniProt Q59289).
T1 construct: purchased Seikagaku
The assay can be described thus: Heparanase assay: biotin-HS digestion with heparanase with or without excess unlabeled HS. It counts as biochemical, bacterial. Conditions: 50 fold (5 μg) excess of unlabeled HS. As for the experimental part: Biotin-labeled HS from Example 1 was digested with heparanase, and the reaction containing undegraded and degraded HS was bound to in a biotin-binding plate (FIG. 1). Streptavidin, conjugated with an enzyme, was added to the binding plate. Quantitation of the color reaction measured the amount of available biotin binding sites. A decrease in color from a known amount reflects HS digestion by heparanase.
A lyophilized powder of heparanase (Heparanase III obtained from Seikagaku) containing 0.1 units of enzymatic activity was hydrated in 100 μl of Reaction Buffer (3.33 mM calcium acetate pH 7.0, containing 0.1 mg/ml BSA). This solution was then diluted to a working concentration of heparanase solution (0.01 micro-units to 1 milli-unit) in Reaction Buffer. Enzyme activity was defined by the manufacturer of the heparanase (Seikagaku) as follows: one unit of enzyme activity is defined as amount required to generate 1 μmole of hexuronic acid per minute. Biotin-HS was diluted to a desired concentration in Reaction Buffer.
To determine heparanase activity, 10 μl of heparanase solution was mixed with 200 μl of the biotin-HS substrate in a 96 well plate. The reaction was incubated at 43° C. for 1 hour. […] Color development in the wells was assessed by measuring the optical density at 450 nm in a microplate reader (Labsystems, Muliskan Ascent model). […]

Assay [2] has as its system biotin-HS. The assay can be described thus: Digestion of biotin-HS by enzymes, detected with streptavidin-enzyme conjugate. It counts as biochemical. Conditions: protease in place of heparanase; FIG. 6.

T1 sequence (Q59289 25-659): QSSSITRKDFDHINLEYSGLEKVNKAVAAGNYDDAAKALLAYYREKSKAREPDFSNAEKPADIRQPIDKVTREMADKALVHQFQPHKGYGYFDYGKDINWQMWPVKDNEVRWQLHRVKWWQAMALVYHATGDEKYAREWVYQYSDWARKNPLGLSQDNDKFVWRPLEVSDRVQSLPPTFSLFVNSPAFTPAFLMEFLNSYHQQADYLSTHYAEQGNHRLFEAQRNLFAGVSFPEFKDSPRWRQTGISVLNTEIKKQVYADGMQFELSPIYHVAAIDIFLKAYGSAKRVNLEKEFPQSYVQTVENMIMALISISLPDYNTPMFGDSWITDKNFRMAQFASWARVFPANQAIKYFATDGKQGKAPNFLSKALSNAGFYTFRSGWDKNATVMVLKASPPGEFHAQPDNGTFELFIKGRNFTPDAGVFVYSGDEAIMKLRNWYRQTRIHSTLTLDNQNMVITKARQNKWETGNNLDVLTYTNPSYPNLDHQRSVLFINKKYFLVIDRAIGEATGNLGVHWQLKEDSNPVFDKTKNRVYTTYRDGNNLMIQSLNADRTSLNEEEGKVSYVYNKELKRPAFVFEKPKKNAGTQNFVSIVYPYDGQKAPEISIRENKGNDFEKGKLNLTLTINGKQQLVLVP

Take heparan sulfate [unlabeled HS]: the “Inhibition of heparanase activity toward biotin-HS” value in assay [1] was “approximately 60%”.
Turning to trypsin, the “Activity leading to a decrease in the amount of biotin-HS detected by the assay” value in assay [2] is reported as “Neither protease tested (MMP or trypsin) demonstrated any activity”.

These data come from US6656699B2, “Methods and compositions for glycosidase assays” (Reddy US Therapeutics, Inc., priority 2000, dated 2003).
